EC50 data for 18 compounds are collected here from patent publication US20210315893A1 (Galapagos NV, priority 2017, published 2021).

SMILES strings stand for the structures.

By EC50 is commonly meant the concentration giving half of the maximal effect.

In test [1] the test system is HFL-1 cells. Nature of the test: IL-8 production assay (S1P induced IL-8). Format: cell-based. As to conditions: Homo sapiens, HFL1; S1P (1 μM) induced IL-8 in HFL-1 cells, starvation medium without HSA; read-out: IL8 EC50. The protocol: This assay is designed to test inhibitory activity of compounds on S1P induced IL-8 on HFL-1 cells, ahuman fetal lung fibroblast cell line.
Human Fetal Lung cells (HFL-1) are seeded in 96 well plates in growth medium (F12K+10% heat inactivated FBS+l1% Pen/strep). After overnight incubation at 37° C., […] cells are refreshed with starvation medium without HSA (F12K+1% FBS+1% Pen/strep). On day three, compounds are added (10 point serial dilution, 30 μM highest concentration, 1/3 dilution, 0.3% DMSO final) and plates are incubated for one h at 37° C., 5% CO2. Subsequently S1P at 1 μM final concentration is added and plates are incubated for 16 to24 h at 37° C., […] after which the supermatant was collected. IL-8 levels in the supernatant are determined with the IL-8 ELISA of R&D systems.

The test system of test [2] is HFL-1 cells. Put plainly: IL8 assay in the presence of Human Serum Albumin. As to conditions: HFL1, read-out: HSA IL8 EC50.
The target in test [3] is T1, human GPCR sphingosine 1-phosphate receptor 2 (Homo sapiens, UniProt O95136).
T1 construct: host or cells: CHO
T1 sequence (O95136 whole entry): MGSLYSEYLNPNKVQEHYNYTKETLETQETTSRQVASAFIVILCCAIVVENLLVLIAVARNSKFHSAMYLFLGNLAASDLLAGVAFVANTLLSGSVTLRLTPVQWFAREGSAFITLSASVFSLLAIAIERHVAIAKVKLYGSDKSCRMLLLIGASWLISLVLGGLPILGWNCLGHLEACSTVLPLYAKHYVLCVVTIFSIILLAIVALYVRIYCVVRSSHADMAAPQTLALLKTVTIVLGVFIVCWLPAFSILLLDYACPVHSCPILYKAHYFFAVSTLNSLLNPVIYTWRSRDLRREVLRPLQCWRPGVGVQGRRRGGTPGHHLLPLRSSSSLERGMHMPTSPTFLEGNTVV
Put plainly: S1PR2 antagonist Ca2+ flux assay. Format: cell-based. As to conditions: antagonist mode, CHO-S1PR2 cells, S1P at EC80, Ca2+ fluorescence; read-out: S1P2 EC50 (nM), S1P2 antagonist EC50. A digest of the protocol:
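Antagonist mode: 15 min after compound addition, S1P (EC80) stimulates Fluo8-loaded, 1 h-starved CHO-S1PR2 cells, Ca2+ read over 3 min; a prior 3-min read checks compound agonism. EC50 from peak/baseline fluorescence ratio, normalised versus vehicle and S1P EC50 (antagonist) or EC100 (agonist).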

The target in the next test is T2, S1PR2 (Homo sapiens, UniProt O95136).
T2 construct: expressed in transfected cells
T2 sequence (O95136 whole entry): as above
Put plainly: S1PR2 binding assay (competition with radioactively labeled S1P, SpA). The conditions noted are these: membranes from stable cell line over expressing S1PR2, SpA beads; read-out: S1P2 EC50 (nM), S1PR2 binding EC50. A digest of the protocol: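 Scintillation proximity read-out after 2 h room-temperature incubation of compound, [3H]S1P and S1PR2-overexpressing cell membranes on WGA-coated beads. Buffer: 20 mM Tris pH 7.5, 100 mM NaCl, 10 mM MgCl2, 1 mM Na3VO4, 0.4% fatty-acid-free BSA; plates counted immediately after centrifugation.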

`O=c1c2ccccc2c(Cc2nc3cc(Cl)c(OC(F)(F)F)cc3[nH]2)nn1C1CCNCC1` [Compound 62, 4-[[6-chloro-5-(trifluoromethoxy)-1H-benzimidazol-2-yl]methyl]-2-(4-piperidyl)phthalazin-1-one]: the EC50 in the test on HFL-1 cells [1] is 349 nM; in the test with HFL-1 cells [2], 6430 nM; in test [3], 968 nM; on S1PR2, 453 nM.

For `N#Cc1cc2nc(Cc3nn(C4CN(CC(=O)O)C4)c(=O)c4ccccc34)cn2cc1OCC1CC1` [Compound 73], the concentration giving a half-maximal response (EC50) in the test on HFL-1 cells [1] turned out to be 365 nM; in the test with HFL-1 cells [2], 563 nM; in test [3], 1330 nM; on S1PR2 it was 478 nM.

`CN(C)CC(C(=O)O)n1nc(Cc2nc3cc(OCC(F)F)c(C#N)cc3[nH]2)c2ccccc2c1=O` (stereo not drawn) [Compound 74, 2-[4-[[6-cyano-5-(2,2-difluoroethoxy)-1H-benzimidazol-2-yl]methyl]-1-oxo-phthalazin-2-yl]-3-(dimethylamino)propanoic acid]: the EC50 in the test on HFL-1 cells [1] worked out at 823 nM; with HFL-1 cells [2], 779 nM; in test [3] it was 2660 nM; on S1PR2, 5330 nM.

Turning to `N#Cc1cc2[nH]c(Cc3nn(C(CN4CCC4)C(=O)O)c(=O)c4ccccc34)nc2cc1OCC(F)F` (stereo not drawn) [Compound 75, 3-(azetidin-1-yl)-2-[4-[[6-cyano-5-(2,2-difluoroethoxy)-1H-benzimidazol-2-yl]methyl]-1-oxo-phthalazin-2-yl]propanoic acid], the half-maximal effective concentration (EC50) is 938 nM with HFL-1 cells [1], 1300 nM in the test on HFL-1 cells [2], 3850 nM in test [3] and 2920 nM at S1PR2.

Take `O=C(O)Cc1nn(Cc2nc3cc(OCC(F)F)c(Cl)cc3[nH]2)c2ccccc2c1=O` [Compound 78, {1-[6-Chloro-5-(2,2-difluoro-ethoxy)-1H-benzoimidazol-2-ylmethyl]-4-oxo-1,4-dihydro-cinnolin-3-yl}-acetic acid]: the concentration giving a half-maximal response (EC50) was determined as 4.65 nM with HFL-1 cells [1], 41.5 nM in the test on HFL-1 cells [2], 6.16 nM in test [3] and 55.9 nM at S1PR2.

In the case of `CCC(C(=O)O)c1nn(Cc2cn3cc(OCC4CC4)c(C(F)(F)F)cc3n2)c2ccccc2c1=O` (stereo not drawn) [Compound 103, 2-[1-[[6-(cyclopropylmethoxy)-7-(trifluoromethyl)imidazo[1,2-a]pyridin-2-yl]methyl]-4-oxo-cinnolin-3-yl]butanoic acid], the EC50 in the test with HFL-1 cells [1] was determined as 18.9 nM; in the test with HFL-1 cells [2], 108 nM; in test [3], 4.59 nM; at S1PR2, 223 nM.

With `O=C(O)c1nn(Cc2nc3cc(OCC4CC4)c(C(F)(F)F)cc3[nH]2)c2ccccc2c1=O` [Compound 104, (1-[[5-(cyclopropylmethoxy)-6-(trifluoromethyl)-1H-benzimidazol-2-yl]methyl]-4-oxocinnoline-3-carboxylic acid)], the half-maximal effective concentration (EC50) with HFL-1 cells [1] amounted to 4.55 nM; in the test with HFL-1 cells [2] it was 27 nM; in test [3] it was 3.02 nM; at S1PR2 it was 22.4 nM.

For the compound `O=C(O)Cc1nn(Cc2cn3cc(OCC4CC4)c(Cl)cc3n2)c2c(c1=O)CCCC2` [Compound 105, 2-[1-[[7-chloro-6-(cyclopropylmethoxy)imidazo[1,2-a]pyridin-2-yl]methyl]-4-oxo-5,6,7,8-tetrahydrocinnolin-3-yl]acetic acid], the half-maximal effective concentration (EC50) with HFL-1 cells [1] is 10.6 nM; in the test on HFL-1 cells [2], 110 nM; in test [3] it was 3.02 nM; at S1PR2, 35.3 nM.

As for `O=C(O)Cc1nn(Cc2nc3cc(OCC4CC4)c(Br)cc3[nH]2)c2ccccc2c1=O` [Compound 109, 2-[1-[[6-bromo-5-(cyclopropylmethoxy)-1H-benzimidazol-2-yl]methyl]-4-oxo-cinnolin-3-yl]acetic acid], the EC50 with HFL-1 cells [1] was determined as 0.137 nM; in the test with HFL-1 cells [2], 2.03 nM; in test [3] it was 2.32 nM; on S1PR2, 3.84 nM.

On to `CCOc1cc2[nH]c(Cc3nn(CC(=O)O)c(=O)c4c3CCCC4)nc2cc1Cl` [Compound 121, 2-[4-[(5-chloro-6-ethoxy-1H-benzimidazol-2-yl)methyl]-1-oxo-5,6,7,8-tetrahydrophthalazin-2-yl]acetic acid], for which the EC50 came out at 6.35 nM with HFL-1 cells [1], 50.8 nM in the test with HFL-1 cells [2], 6.23 nM in test [3] and 84.8 nM on S1PR2.

For the compound `CC1(COc2cc3nc(Cc4nn(CC(=O)O)c(=O)c5ccccc45)[nH]c3cc2Cl)CC1` [Compound 131, 2-[4-[[5-chloro-6-[(1-methylcyclopropyl)methoxy]-1H-benzimidazol-2-yl]methyl]-1-oxo-phthalazin-2-yl]acetic acid], the EC50 in the test on HFL-1 cells [1] was found to be 12 nM; with HFL-1 cells [2], 267 nM; in test [3] it was 13.2 nM; on S1PR2 it was 197 nM.

For the compound `CC(C)(C)COc1cc2nc(Cc3nn(CC(=O)O)c(=O)c4ccccc34)[nH]c2cc1Cl` [Compound 132], the EC50 in the test on HFL-1 cells [1] was 97.3 nM; in the test on HFL-1 cells [2], 800 nM; in test [3], 26.4 nM; at S1PR2 it was 649 nM.

As for `N#CC1(COc2cc3nc(Cc4nn(CC(=O)O)c(=O)c5ccccc45)[nH]c3cc2Cl)CC1` [Compound 133, 2-[4-[[5-chloro-6-[(1-cyanocyclopropyl)methoxy]-1H-benzimidazol-2-yl]methyl]-1-oxo-phthalazin-2-yl]acetic acid], the 50% effective concentration (EC50) in the test with HFL-1 cells [1] stood at 33.3 nM; with HFL-1 cells [2], 267 nM; in test [3], 14.8 nM; on S1PR2, 263 nM.

Regarding `N#Cc1cc2nc(Cc3nn(CC(=O)O)c(=O)c4ccccc34)[nH]c2cc1OCC(F)F` [Compound 139], the 50% effective concentration (EC50) stood at 5.39 nM in the test with HFL-1 cells [1], 28 nM in the test with HFL-1 cells [2], 119 nM in test [3] and 159 nM at S1PR2.

In the case of `O=C(Cn1nc(Cn2cc3cc(OCC4CC4)c(Cl)cc3n2)c2ccccc2c1=O)N[C@H]1CCC[C@@H]1O` [Compound 143, 2-[4-[[6-chloro-5-(cyclopropylmethoxy)indazol-2-yl]methyl]-1-oxo-phthalazin-2-yl]-N-[(1S,2S)-2-hydroxycyclopentyl]acetamide], the EC50 with HFL-1 cells [1] stood at 21.6 nM; with HFL-1 cells [2], 179 nM; in test [3] it was 13.8 nM; on S1PR2, 15.2 nM.

`O=C(Cn1nc(Cc2nc3cc(Cl)c(OCC(F)F)cc3[nH]2)c2ccccc2c1=O)N1CCOCC1` [Compound 151, 4-[[5-chloro-6-(2,2-difluoroethoxy)-1H-benzimidazol-2-yl]methyl]-2-(2-morpholino-2-oxo-ethyl)phthalazin-1-one]: the EC50 in the test with HFL-1 cells [1] is 7.11 nM; in the test with HFL-1 cells [2], 43.7 nM; in test [3] it was 13.6 nM; on S1PR2 it was 34.7 nM.

Take `CC(C(=O)N1CCOCC1)n1nc(Cc2nc3cc(OCC4CC4)c(Cl)cc3[nH]2)c2ccccc2c1=O` (stereo not drawn) [Compound 155, 4-(6-Chloro-5-cyclopropylmethoxy-1H-benzoimidazol-2-ylmethyl)-2-(1-methyl-2-morpholin-4-yl-2-oxo-ethyl)-2H-phthalazin-1-one]: the EC50 in the test on HFL-1 cells [1] came to 49.5 nM; in the test on HFL-1 cells [2], 230 nM; in test [3], 14.7 nM; on S1PR2 it was 229 nM.

`CCOc1cc2nc(Cc3nn(CC(=O)N4CCOCC4)c(=O)c4ccccc34)[nH]c2cc1F` [Compound 157, 4-[(5-ethoxy-6-fluoro-1H-benzimidazol-2-yl)methyl]-2-(2-morpholino-2-oxo-ethyl)phthalazin-1-one]: the EC50 in the test on HFL-1 cells [1] turned out to be 780 nM; with HFL-1 cells [2], 1220 nM; in test [3], 106 nM; on S1PR2, 618 nM.
